US20240124483A1, “Methods for the Treatment of Fibrotic Disease” (SHY Therapeutics, LLC, priority 2021, published 2024)
Read-outs that look alike come from different tables or passages of the source.

Assays:
MiaPaca2 = MiaPaca2 proliferation; format: cell-based; details: Homo sapiens, MIA PaCa-2; for inhibition at 10 µM: read-out: % inh of proliferation in MiaPaca2
KRas wild type = KRas wild type (Homo sapiens (Human), UniProt P01116); test: Ras GTP Binding Domain Inhibition Assay, KRas wild type
Method in brief: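 Fluorescent GTP binding to plate-captured His-tagged Ras: compound 20 μM (or dilution series for IC50), 3 h RT, ±Sos GEF 10-30 μg/mL last hour; then 100 nM Cy3/Cy5-GTP 45 min RT, wash ×3, read bound label.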

Smad2/3 phosphorylation = test: Phospho-Smad2/3 Inhibition Assay in Panc-1 (western blot); format: cell-based; details: Homo sapiens; 10 μM, 3 hours; PANC-1 stimulated with 10 ng/ml TGF-b1 for 1 hour; read-out: % inh of Smad2/3 phosphorylation in PANC-1
Method in brief: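 Serum-starved cells (0.5% FBS overnight) pretreated 3 h at 37 °C with compound at 10 μM or serial dilutions for IC50, in 0.3% DMSO. TGF-b1 10 ng/ml stimulation: 1 h for Panc-1 (human), 20 min for C2C12 (mouse). Phospho-Smad2 (Ser465/467) and phospho-Smad3 (Ser423/425) measured by western blot of lysates.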

JNK = JNK Activation Assay in Panc-1 (western blot); format: cell-based, Human; parameters: key: Y = yes; N = No; details: at 10 μM
Method in brief: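 Cells were serum-starved overnight in 0.5% FBS, then given compound (10 μM single dose or serial dilutions, 0.3% DMSO) for 3 h at 37 °C. TGF-b1 at 10 ng/ml followed, 1 h for Panc-1 and 20 min for C2C12. Phospho-JNK (Thr183/Tyr185) was read by western blot of lysates.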

Rac-1 = Rac-1 (Homo sapiens (Human), UniProt P63000); test: Ras GTP Binding Domain Inhibition Assay, Rac-1; details: without SOS, read-out: Rac-1: % inh.
Method in brief: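 His-tagged GTPase immobilized on nickel-coated plates (10-30 μg/mL, overnight, 4° C), then exposed to compound (20 μM or serial dilution for IC50, 1% DMSO) for 3 h at room temperature, with or without His-tagged Sos (residues 556-1049) in the final hour. Bound Cy3-GTP or Cy5-GTP (100 nM, 45 min) was read by fluorescence after washing.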

[1] = + SOS, read-out: KRas wild type + SOS: % inh.
[2] = without SOS, read-out: KRas wild type: % inh.

Sequence of KRas wild type (P01116 other isoform, or with tags, fused parts or gaps): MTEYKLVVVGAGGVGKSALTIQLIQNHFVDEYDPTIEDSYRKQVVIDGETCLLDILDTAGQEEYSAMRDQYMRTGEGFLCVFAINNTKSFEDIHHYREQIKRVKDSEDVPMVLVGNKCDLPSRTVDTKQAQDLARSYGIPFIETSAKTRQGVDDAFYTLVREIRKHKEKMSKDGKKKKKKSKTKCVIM

Compound | IC50 (MiaPaca2) [µM] | inhibition at 20 µM (KRas wild type; [1]) [%] | inhibition at 20 µM (KRas wild type; [2]) [%] | inhibition at 20 µM (Rac-1) [%] | inhibition at 10 µM (MiaPaca2) [%] | inhibition at 10 µM (Smad2/3 phosphorylation) [%] | Activation of JNK in PANC-1 (JNK)
COCCOCCNc1nc(-c2nccn2C)nc2sc(-c3ccn(C(C)C)n3)c(C)c12 [Compound 21, 6-(1-Isopropyl-1H-pyrazol-3-yl)-N-(2-(2-methoxyethoxy)ethyl)-5-methyl-2-(1-methyl-1H-imidazol-2-yl)thieno[2,3-d]pyrimidin-4-amine] | 5 to 10 | 76 to 100 | 76 to 100 | 76 to 100 | 76 to 100 | 0 | Y
Cc1c(-c2ccn(C(C)C)n2)sc2nc(-c3nccn3C)nc(NCCN3CCS(=O)(=O)CC3)c12 [Compound 23, 4-(2-((6-(1-Isopropyl-1H-pyrazol-3-yl)-5-methyl-2-(1-methyl-1H-imidazol-2-yl)thieno[2,3-d]pyrimidin-4-yl)amino)ethyl)thiomorpholine 1,1-dioxide] | > 10 | 76 to 100 | 76 to 100 | 46 to 75 | 0 | 0 | N
COCCn1c(-c2nccn2C)nc2sc(-c3ccn(C(C)C)n3)c(C)c2c1=O [Compound 29, 6-(1-Isopropyl-1H-pyrazol-3-yl)-3-(2-methoxyethyl)-5-methyl-2-(1-methyl-1H-imidazol-2-yl)thieno[2,3-d]pyrimidin-4(3H)-one] | 5 to 10 | 76 to 100 | 76 to 100 | 0 | 46 to 75 | 0 | Y
COCCCCn1c(-c2nccn2C)nc2sc(-c3ccn(C(C)C)n3)c(C)c2c1=O [Compound 33, 6-(1-Isopropyl-1H-pyrazol-3-yl)-3-(4-methoxybutyl)-5-methyl-2-(1-methyl-1H-imidazol-2-yl)thieno[2,3-d]pyrimidin-4(3H)-one] | > 10 | 1 to 25 | 0 | 0 | 0 | 0 | N
COCCCCOc1nc(-c2nccn2C)nc2sc(-c3ccn(C(C)C)n3)c(C)c12 [Compound 34, 6-(1-Isopropyl-1H-pyrazol-3-yl)-4-(4-methoxybutoxy)-5-methyl-2-(1-methyl-1H-imidazol-2-yl)thieno[2,3-d]pyrimidine] | > 10 | 0 | 1 to 25 | 0 | 26 to 45 | 0 | Y
COc1cc(Cn2c(-c3nccn3C)nc3sc(-c4ccn(C(C)C)n4)c(C)c3c2=O)ncn1 [Compound 35, 6-(1-Isopropyl-1H-pyrazol-3-yl)-3-((6-methoxypyrimidin-4-yl)methyl)-5-methyl-2-(1-methyl-1H-imidazol-2-yl)thieno[2,3-d]pyrimidin-4(3H)-one] | > 10 | 1 to 25 | 1 to 25 | 0 | 0 | 0 | N
COCCCn1c(-c2nccn2C)nc2sc(-c3ccn(C(C)C)n3)c(-c3ccccc3)c2c1=O [Compound 36, 6-(1-Isopropyl-1H-pyrazol-3-yl)-3-(3-methoxypropyl)-2-(1-methyl-1H-imidazol-2-yl)-5-phenylthieno[2,3-d]pyrimidin-4(3H)-one] | 5 to 10 | 1 to 25 | 1 to 25 | 0 | 76 to 100 | 0 | Y
COCCCOc1nc(-c2nccn2C)nc2sc(-c3ccn(C(C)C)n3)c(-c3ccccc3)c12 [Compound 37, 6-(1-Isopropyl-1H-pyrazol-3-yl)-4-(3-methoxypropoxy)-2-(1-methyl-1H-imidazol-2-yl)-5-phenylthieno[2,3-d]pyrimidine] | > 10 | 1 to 25 | 0 | 0 | 1 to 25 | 0 | N

Now from value to compound, other results behind:

IC50 (MiaPaca2) [µM] | inhibition at 20 µM (KRas wild type; [1]) [%] | inhibition at 20 µM (KRas wild type; [2]) [%] | inhibition at 20 µM (Rac-1) [%] | Compound | inhibition at 10 µM (MiaPaca2) [%] | inhibition at 10 µM (Smad2/3 phosphorylation) [%] | Activation of JNK in PANC-1 (JNK)
5 to 10 | 76 to 100 | 76 to 100 | 76 to 100 | Cc1c(-c2ccn(C(C)C)n2)sc2nc(-c3nccn3C)nc(NCCN3CCOCC3)c12 [Compound 22, 6-(1-Isopropyl-1H-pyrazol-3-yl)-5-methyl-2-(1-methyl-1H-imidazol-2-yl)-N-(2-morpholinoethyl)thieno[2,3-d]pyrimidin-4-amine] | 76 to 100 | 0 | Y
5 to 10 | 76 to 100 | 76 to 100 | 46 to 75 | CO[C@H]1CNC[C@@H](Nc2nc(-c3nccn3C)nc3sc(-c4ccn(C(C)C)n4)cc23)C1 [Compound 28, 6-(1-Isopropyl-1H-pyrazol-3-yl)-N-((3S,5R)-5-methoxypiperidin-3-yl)-2-(1-methyl-1H-imidazol-2-yl)thieno[2,3-d]pyrimidin-4-amine] | 76 to 100 | 0 | Y
> 10 | 0 | 1 to 25 | 0 | COCCOc1nc(-c2nccn2C)nc2sc(-c3ccn(C(C)C)n3)c(C)c12 [Compound 30, 6-(1-Isopropyl-1H-pyrazol-3-yl)-4-(2-methoxyethoxy)-5-methyl-2-(1-methyl-1H-imidazol-2-yl)thieno[2,3-d]pyrimidine] | 1 to 25 | 0 | N
> 10 | 1 to 25 | 1 to 25 | 0 | COCCCn1c(-c2nccn2C)nc2sc(-c3ccn(C(C)C)n3)c(C)c2c1=O [Compound 31, 6-(1-Isopropyl-1H-pyrazol-3-yl)-3-(3-methoxypropyl)-5-methyl-2-(1-methyl-1H-imidazol-2-yl)thieno[2,3-d]pyrimidin-4(3H)-one] | 0 | 0 | N
5 to 10 | 76 to 100 | 76 to 100 | 0 | COCCCOc1nc(-c2nccn2C)nc2sc(-c3ccn(C(C)C)n3)c(C)c12 [Compound 32, 6-(1-Isopropyl-1H-pyrazol-3-yl)-4-(3-methoxypropoxy)-5-methyl-2-(1-methyl-1H-imidazol-2-yl)thieno[2,3-d]pyrimidine] | 76 to 100 | 0 | Y
1 to 4.99 | 76 to 100 | 46 to 75 | 26 to 45 | COc1cccc(-c2sc3nc(-c4nccn4C)nc(N[C@H]4C[C@H](OC)C4)c3c2-c2ccccc2)c1F [Compound 40, 6-(2-Fluoro-3-methoxyphenyl)-N-((1r,3r)-3-methoxycyclobutyl)-2-(1-methyl-1H-imidazol-2-yl)-5-phenylthieno[2,3-d]pyrimidin-4-amine] | 76 to 100 | 76 to 100 | Y
